Reference: patent US20100015058A1, “RADIOLABELED BBN-RGD HETERODIMERS FOR CANCER TARGETING” (STANFORD UNIVERSITY, priority 2008, published 2010)

Key:
in vivo [1] = assay: in vivo; design: species or system mice; settings: female, BALB/c, mouse, iv, 3.7 MBq, total radioactivity
Protocol: The 4T1 murine breast cancer cell line was purchased from American Type Culture Collection and grown in RMPI 1640 medium (Invitrogen Corp.) supplemented with 10% (v/v) fetal bovine serum (Invitrogen) at 37° C. with 5% CO2. The 4T1 tumor model was generated by subcutaneous injection of 5×10^6 tumor cells into the left front flank of female normal BALB/c mice (Harlan).
Five-minute static PET images were then acquired at 2 h after injection (n=3/group).

in vivo [2] = assay: in vivo; design: species or system mice; settings: BALB/c, mouse, iv, 370 kBq, total radioactivity, pancreatic uptake
Protocol: All mice were sacrificed at 1 h after injection of the tracer. Blood, tumor, and major organs and tissues were collected and wet-weighed. Stomach and intestines were cleaned of their contents in this experiment. The radioactivity in the tissue was measured using a g-counter (Packard). The results were presented as percentage injected dose per gram of tissue (% ID/g). Values were expressed as mean 6 SD (n=4/group).

For `CSCC[C@H](NC(=O)[C@H](CC(C)C)NC(=O)[C@H](Cc1c[nH]cn1)NC(=O)CNC(=O)[C@@H](NC(=O)[C@H](C)NC(=O)[C@H](Cc1c[nH]c2ccccc12)NC(=O)[C@H](CCC(N)=O)NC(=O)CCCCCNC(=O)CC[C@H](NC(=S)Nc1ccc(C[C@H]2CN(CC(=O)O)CCN(CC(=O)O)CCN2CC(=O)O)cc1)C(=O)NCCCC[C@@H]1NC(=O)[C@@H](Cc2ccc(O)cc2)NC(=O)[C@H](CC(=O)O)NC(=O)CNC(=O)[C@H](CCCNC(=N)N)NC1=O)C(C)C)C(N)=O` [^64Cu-NOTA-RGD-BBN, metal not drawn], which tissue uptake at 2 h (in vivo [1]) is on record?
The tissue uptake at 2 h was 1.88 ± 0.28 %ID/g.

What about the tissue uptake at 1 h (in vivo [2]) of the same compound?
The tissue uptake at 1 h was 7.03 ± 1.96 %ID/g.
